Among the data in US20120135451A1, “Method and Apparatus for Evaluation of Toxicity” (BIOPHOS SA, priority 2009, published 2012) are IC50 values, retold here.

Usually IC50 stands for the concentration needed to halve the response being measured.

The experiment relates to boar spermatozoa. As to the kind of experiment: Toxicity evaluation by motility of boar spermatozoa (Qualisperm). It is filed as cell-based. The settings on record: 30 minutes incubation, around 60 million/ml boar spermatozoa. The method, then: Quadruple samples of each test compound were prepared in varying concentrations by serial dilution in a 96 microwell-plate by serial dilution into XCell with DMSO. Equal volumes (50 μl) of boar spermatozoa in a concentration of around 60 million/ml were added to all sample solutions. Subsequently, the microwell plate was shaken and incubated for 30 minutes. The dosing was performed by using an automated TECAN® robot. After the incubation the sample solutions were pipetted on a Leja® slide and the motility of the spermatozoa was analysed using a Qualisperm® apparatus from Biophos AG. A dose response curve was obtained where % motile spermatozoa (all the moving spermatozoa), % progressive spermatozoa (share of spermatozoa above a pre-determined threshold, here: above 25 μm/sec), or mean speed of total motile spermatozoa was plotted as a function of the logarithmic concentration of the test compound expressed in mM. From the dose curve IC50 values were calculated.

Each structure is given as a SMILES string. Where two headings read alike, the source gives them in different places.

Consider `CC(C)C(=O)Nc1ccc([N+](=O)[O-])c(C(F)(F)F)c1` [Flutamide], for which the IC50 by setting is: (0.5 h, % motile spermatozoa (all moving spermatozoa), read-out: IC50 % motille) 95 µM; (0.5 h, % progressive spermatozoa (above 25 μm/sec), read-out: IC50 % progressiv) 62 µM; (0.5 h, mean speed of total motile spermatozoa, read-out: IC50 mean speed) 72 µM.
As for `CC(=O)N1CCN(c2ccc(OCC3COC(Cn4ccnc4)(c4ccc(Cl)cc4Cl)O3)cc2)CC1` (stereo not drawn) [Ketokonazole, Ketoconazole], the IC50 worked out at 209 µM (% motile spermatozoa (all moving spermatozoa), read-out: IC50 % motille); 205 µM (% progressive spermatozoa (above 25 μm/sec), read-out: IC50 % progressiv); 197 µM (mean speed of total motile spermatozoa, read-out: IC50 mean speed).
